We go through 2 compounds from patent US20080051463A1, “ANTHRACENE COMPOUNDS AND THEIR USE FOR TREATING BENIGN AND MALIGNANT TUMOR DISORDERS” (AETERNA ZENTARIS GmbH, priority 2006, published 2008).

In brackets after ≈: the same amount, converted by molar mass. Several values for one entry are separate records, joined by “and”; a condition that tells them apart may be missing. Equal entries are not always repeated.

Data set [1] concerns lung carcinoma cell line NCI-H460. The data set can be described thus: Proliferation test (cellular dehydrogenase activity), NCI-H460. The format is cell-based. Conditions: Homo sapiens. The text has this: (§1) The antiproliferative activity of the compounds 1, 2, 4, 6, 7, 9, 10, 11, 12 and 13 according to the invention was investigated in a proliferation test performed on established tumor cell lines (D. A. Scuderio et al. Cancer Res. 1988, 48: 4827-4833).
(§2) The test used determines the cellular dehydrogenase activity and makes it possible to determine cell viability and determine cell number indirectly.
(§3) The cell lines used are the human cervical carcinoma cell line KB/HeLa (ATCC CCL17), the ovarian adenocarcinoma cell line SKOV-3 (ATCC HTB77), the human glioblastoma cell line SF-268 (NCI-503138) and the lung carcinoma cell line NCI-H460 (NCI-503473). In addition, an RKOp27 cell system was used for investigating the cell cycle-specific effect of the substance (M. Schmidt et al. Oncogene 2000, 19(20): 2423-9).

For the next data set, the system named is murine P388 cell line. Nature of the data set: XTT antiproliferative test, P388. Conditions: P388 wild type. It counts as cell-based. The text has this: (§4) For further characterization, the compounds 6 and 7 according to the invention were investigated with regard to multidrug-resistant (MDR) cell lines as compared with the nonresistant wild-type cell lines.
(§5) The murine P388 cell line (methylcholanthrene-induced lymphoid neoplasm) [R. Supino et al.; Inst. Nazionale per lo Studio e las cura die Tumori; Milan)] and the doxorubicin-resistant P388 cell line (NSC-123127) were also included as test systems.

Another data set has as its system resistant line LT12/mdr. The data set can be described thus: XTT antiproliferative test, LT12/mdr. The format is cell-based.
From the text: as §4
(§6) The cell lines which were investigated are the murine cell line L1210 (ATCC CCL219), the acute myeloid leukaemia cell line LT12 (De Vries et al.; University Rotterdam) and the resistant lines L1210/VCR (Asta Medica Laboratory) and LT12/mdr (De Vries et al.; University Rotterdam).
(Formazan colour is commonly taken as a measure of viable cells.)

Data set [2] relates to human cervical carcinoma cell line KB/HeLa. Nature of the data set: Proliferation test (cellular dehydrogenase activity), KB/HeLa. The format is cell-based.
From the text: as §1, §2, §3

In the next data set the test system is murine cell line L1210. The data set can be described thus: XTT antiproliferative test, L1210. The format is cell-based. Conditions: L1210 wild type.
From the text: as §4, §6

The subject of data set [3] is human glioblastoma cell line SF-268. The data set can be described thus: Proliferation test (cellular dehydrogenase activity), SF-268. It counts as cell-based.
From the text: as §1, §2, §3

Data set [4] deals with RKOp27 human colon carcinoma cells. Nature of the data set: Proliferation test, RKOp27 cell system without p27kiP1 expression. The format is cell-based. Conditions: RKOp27 without expression of p27kiP1.
From the text: as §1, §2, §3
(§7) RKO is a human colon carcinoma line in which expression of the cell cycle inhibitor p27^kiP1 can be induced using the ecdysone expression system and lead to cell cycle arrest specifically in […].
(§8) By contrast, cell cycle-specific substances, such as, for example, tubulin inhibitors, are only cytotoxic when cells are not arrested and the cell cycle is passed through.

Another data set relates to resistant line L1210/VCR. Nature of the data set: XTT antiproliferative test, L1210/VCR. The format is cell-based, murine.
From the text: as §4, §6

For data set [5], the system named is doxorubicin-resistant P388 cell line. The data set can be described thus: XTT antiproliferative test, doxorubicin-resistant P388. It counts as cell-based, murine.
From the text: as §4, §5

For a further data set, the system named is T1, porcine brain tubulin.
T1 construct: In addition to tubulin, the protein used comprises about 15% of associated proteins (MAPs)
The data set can be described thus: Inhibition of the polymerization of porcine brain tubulin (turbidimetric). The format is biochemical. Conditions: porcine brain tubulin with about 15% MAPs, GTP, 37° C. The protocol: b) In an in vitro test, the compounds 1, 2, 4 and 7 were tested for inhibition of the polymerization of porcine brain tubulin. In this test, tubulin purified by polymerization and depolymerization cycles is used (Shelanski et al. Proc. Natl. Acad. Sci. U.S.A. 1973, 70, 765-768 modified according to Vater et al. Acta Histochem. Suppl. 1986, 33, 123-129), which is polymerized by addition of GTP and heating to 37° C. In addition to tubulin, the protein used comprises about 15% of associated proteins (MAPs). The measurement values were determined turbidimetrically according to Gaskin et al. J. Mol. Biol. 89 (1974) 737-755.
Table 3 states the EC50 value of the polymerization inhibition.

Data set [6] relates to RKOp27 human colon carcinoma cells, p27kiP1 induced. The data set can be described thus: Proliferation test, RKOp27 cell system with induced p27kiP1 expression. It counts as cell-based. Conditions: RKOp27 with induced expression of p27kiP1, read-out: RKOP27ind EC50.
From the text: as §1, §2, §3, §7, §8

The subject of the next data set is bovine tubulin. Nature of the data set: Inhibition of the polymerization of bovine tubulin (in vitro). It counts as biochemical. The text has this: In this test, tubulin purified by polymerization and depolymerization cycles is used, which is polymerized by addition of GTP and heating.
Table 1 states the %-inhibition values and Table 2 states the EC50 values of polymerization inhibition of tubulin with 30% associated proteins (MAPs).

Data set [7] has as its system acute myeloid leukaemia cell line LT12. The data set can be described thus: XTT antiproliferative test, LT12. The format is cell-based. Conditions: LT12 wild type.
From the text: as §4, §6

Data set [8] concerns ovarian adenocarcinoma cell line SKOV-3. The data set can be described thus: Proliferation test (cellular dehydrogenase activity), SK-OV-3. It counts as cell-based. Conditions: Homo sapiens.
From the text: as §1, §2, §3

The next data set relates to KB/HeLa cells. Nature of the data set: Cell cycle analysis (G2/M arrest) in KB/HeLa cells. Conditions: Homo sapiens, 24 h, 24 hours at 37° C., 0.1-1000 nM, read-out: EC50 [nM] (50% cells in G2/M). The format is cell-based. The protocol: For the cell cycle analysis, KB/HeLa cells (ATCC CCL17) were treated with different concentrations (0.1-1000 nM) of the test substances at 37° C. for 24 hours.
The percentage of cells arrested in the G2/M phase of the cell cycle after treatment with compounds according to the invention and selected reference substances is shown in Table 9 below. The results were analysed using special analytical software (ModFit™).

In general, melting point refers to the temperature of the solid-liquid transition. One may read the IC50 as the concentration at which inhibition is half-maximal. In general, Inhibition refers to the share of the control response that was lost under treatment. Low values mean little suppression, high ones strong suppression. As for `COc1ccc(C(=O)C=C2c3ccccc3C(=O)c3ccccc32)cc1` [Compound 7, 10-[2-(4-methoxy-phenyl)-2-oxo-ethylidene]-10H-anthracen-9-one], the melting point was 120 to 122 °C. Besides, the EC50 in data set [1] was 0.025 µg/mL (≈ 0.0734 µM). Further, in the data set with murine P388 cell line (Mus musculus, P388, XTT), half-maximal inhibition (IC50) was put at 0.014 µg/mL (≈ 0.0411 µM). In addition, the “P388 IC50” value with murine P388 cell line (XTT) worked out at 0.015 µg/mL. In addition, the IC50 in the data set with resistant line LT12/mdr (Rattus norvegicus, LT12, XTT, read-out: LT12mdr IC50) stood at 0.015 µg/mL (≈ 0.0441 µM). The “LT12mdr IC50” value with resistant line LT12/mdr (XTT) was determined as 0.020 µg/mL. For the same compound, the EC50 in data set [2] amounted to 0.02 µg/mL (≈ 0.0588 µM). In the data set on murine cell line L1210 (Mus musculus, L1210, XTT), this compound displayed a half-maximal inhibitory concentration (IC50) of 0.016 µg/mL (≈ 0.047 µM). Moreover, in the data set on murine cell line L1210 (XTT), the “L1210 IC50” value was 0.017 µg/mL. Moreover, in [3], the EC50 amounted to 0.02 µg/mL (≈ 0.0588 µM). The EC50 in [4] stood at 0.027 µg/mL (≈ 0.0793 µM). For the same compound, the IC50 with resistant line L1210/VCR (Mus musculus, L1210, XTT, read-out: L1210VCR IC50) turned out to be 0.017 µg/mL (≈ 0.0499 µM). Further, in the data set with resistant line L1210/VCR (XTT), the “L1210VCR IC50” value worked out at 0.018 µg/mL. For the same compound, in data set [5] (Mus musculus, P388, XTT, read-out: P388ADR IC50), the IC50 is 0.016 µg/mL (≈ 0.047 µM). In addition, the “P388ADR IC50” value in data set [5] (XTT) was 0.018 µg/mL. Moreover, the “EC50 of the polymerization inhibition” value with porcine brain tubulin worked out at 0.5 µg/mL. The EC50 in data set [6] was above 3.16 µg/mL. The “Inhibition at 10 μg/ml [%]” value in the data set with bovine tubulin (10 μg/ml, tubulin with 30% associated proteins (MAPs), repeat values) is 99.1% and 100.0%. Further, the “EC50 of polymerization inhibition of tubulin” value with bovine tubulin (bovine tubulin with 30% associated proteins (MAPs)) was 1.38 µg/mL and 1.50 µg/mL. This compound also yielded an IC50 in [7] (Rattus norvegicus, LT12, XTT) of 0.015 µg/mL (≈ 0.0441 µM). Moreover, the “LT12 IC50” value in data set [7] (XTT) was 0.019 µg/mL. The compound also showed an EC50 in [8] of 0.02 µg/mL (≈ 0.0588 µM).

Take `CC(=O)O[C@H]1C(=O)[C@@]2(C)[C@H]([C@H](OC(=O)c3ccccc3)[C@]3(O)C[C@H](OC(=O)[C@H](O)[C@@H](NC(=O)c4ccccc4)c4ccccc4)C(C)=C1C3(C)C)[C@]1(OC(C)=O)CO[C@@H]1C[C@@H]2O` [Paclitaxel]: in the data set with KB/HeLa cells, the EC50 worked out at 26.9 nM.
